Test results published in PubChem BioAssay (NCI).
Where “and” joins values, the source holds several entries; their conditions need not be identical. Equal values may be shown once.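 Grown in 96-well plates, cells were treated for 48 hours with each compound at five concentrations. Insufficient inhibition: endpoint recorded as highest concentration tested. GI50 = concentration required for 50% inhibition of growth. The concentration for full growth arrest is given as TGI.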

Key:
Test in all cases: NCI-60 cell line screen, 48 h
OVCAR-8 ovarian = system: OVCAR-8 ovarian
MDA-MB-231 breast = system: MDA-MB-231 breast
UACC-62 melanoma = system: UACC-62 melanoma
M14 melanoma = system: M14 melanoma
LOX IMVI melanoma = system: LOX IMVI melanoma
MDA-MB-435 = system: MDA-MB-435
SK-MEL-5 melanoma = system: SK-MEL-5 melanoma
A498 renal = system: A498 renal
SNB-19 CNS = system: SNB-19 CNS
BT-549 breast = system: BT-549 breast

Structure (SMILES) | TGI (OVCAR-8 ovarian) | TGI (MDA-MB-231 breast) [µM] | TGI (UACC-62 melanoma) | TGI (M14 melanoma) [µM] | TGI (LOX IMVI melanoma) | TGI (MDA-MB-435) [µM] | TGI (SK-MEL-5 melanoma) | TGI (A498 renal) | TGI (SNB-19 CNS) | TGI (BT-549 breast) [µM] | GI50 (OVCAR-8 ovarian) [µM] | GI50 (MDA-MB-231 breast) [µM] | GI50 (UACC-62 melanoma) [µM] | GI50 (M14 melanoma) [µM] | GI50 (LOX IMVI melanoma) [µM] | GI50 (MDA-MB-435) [µM] | GI50 (SK-MEL-5 melanoma) [µM] | GI50 (A498 renal) [µM] | GI50 (SNB-19 CNS) [µM] | GI50 (BT-549 breast) [µM]
COc1cc2c(cc1O)CC1c3c(cc(O)c(OC)c3-2)CCN1C (centres undefined) | > 100 µM | > 100 | > 100 µM | > 100 | > 100 µM | > 100 | > 100 µM | > 100 µM | > 100 µM | > 100 |  |  |  |  |  |  |  |  |  | 
C1=C2CCCC3=Cc4ccccc4OC23Oc2ccccc21 | > 100 µM | 45.5 | 82.5 µM | > 100 | 28 µM | 4.68 | 24.2 µM | 13.1 µM | > 100 µM | 73.7 | 4.04 | 4.23 | 2.91 | 3.37 | 3.88 | 1.64 | 3.37 | 2.76 | 4.01 | 3.73
O=C(c1ccccc1)c1c(NCC(O)CN2CCOCC2)n(Cc2ccccc2)c(=O)n(Cc2ccccc2)c1=O (centres undefined) | > 100 µM | > 100 | > 100 µM | > 100 | > 100 µM | > 100 | > 100 µM | > 88.8 µM | > 84.7 µM | > 100 | 48.9 | 28.8 | 36.7 | 38.9 | 38.6 | 35.2 | 33.4 | 27.5 | 19.1 | 29.3
CC(C)(C)OC(=O)NCCCn1c2c(c3ccccc3c1=O)C(=O)c1ccccc1-2 | 58.2 µM | 48.8 | 53.6 µM | > 100 | 43 µM | > 100 | > 100 µM | > 100 µM | 29.6 µM | > 100 | 13.3 | 12.9 | 20.4 | > 100 | 6.98 | > 100 | 35.2 | 46.1 | 12.1 | 31.7
CCCCCC[C@H](C)Nc1nc2ccccc2c2occc12 | 26.3 µM | 24 | 24.1 µM | 20.8 | 21.4 µM | 35.2 | 18 µM | 25.8 µM | > 100 µM | 18.5 | 10.8 | 10.6 | 11.6 | 7.88 | 8.61 | 14.7 | 3.66 | 11.3 | 29.7 | 4.38
C1CC[N-]CC1.CC(=N\O)/C(C)=N/O.CC(=N\O)/C(C)=N/O.OC1[CH-]CCCC1.[Co+2] | > 100 µM | > 100 | 41.2 µM | > 100 | > 100 µM | > 100 | > 100 µM | > 100 µM | > 100 µM | > 100 | 28.9 | > 100 | 18.1 | 52.8 | 36.4 | 33.9 | 34.6 | > 100 | > 100 | 37.8
C=CC(=O)Nc1cc(N2CCN(CC)CC2)ccc1Nc1cc(N(C)C(=O)Nc2c(Cl)c(OC)cc(OC)c2Cl)ncn1 | 18.1 µM | 11.5 | 27.3 µM | 18.7 | 11.9 µM | 14.4 | 23.9 µM | 8.53 µM | 17.5 µM | 15.1 | 4.38 | 3.26 | 12.8 | 4.85 | 2.82 | 3.47 | 11.3 | 2.18 | 5.05 | 3.07
CC(C)Cc1ccc(C(C)CC2=CCC(CN(C)C)C2=O)cc1 (centres undefined) | 20.3 µM | 22.5 | 23 µM | 17.2 | 9.84 µM | 20.5 | 28.9 µM | 33.4 µM | 29.5 µM | 38.9 |  |  |  |  |  |  |  |  |  | 
CC(C)=CCC(OC(=O)C=C(C)C)C1=CC(=O)c2c(O)ccc(O)c2C1=O (centres undefined) | 7.19 µM and 2.98 µM | 3.89 | 3.1 µM and 2.4 µM | 9.57 | 0.894 µM and 3.07 µM | 4.77 | 14.4 µM and 1.59 µM | 39 µM and 5.39 µM | 40.2 µM and 15.3 µM | 1.98 | 2.27 | 1.63 | 1.67 | 3.51 |  | 2.09 | 4.15 | 20 | 21.9 | 0.59
O=c1[nH]c2nc(NC3CCOCC3)ncc2cc1Oc1ccc(F)cc1F | > 25 µM | > 25 | > 25 µM | > 25 | > 25 µM | > 25 | > 25 µM | > 25 µM | > 25 µM | > 25 | > 25 | > 25 | > 25 | > 25 | > 25 | > 25 | > 25 | > 25 | > 25 | > 25
S=c1nc(N/N=C/c2ccco2)c2cn[nH]c2[nH]1 | > 100 µM | > 100 | > 100 µM | > 100 | > 100 µM | > 100 | > 100 µM | 22.5 µM | > 100 µM | > 100 | 69.2 | > 100 | 33.8 | > 100 | 58.7 | 45.7 | 28.2 | 3.23 | > 100 | 75.2
COc1ccc(C(=O)NNc2nc(Cl)nc(N3CCN(C(c4ccccc4)c4ccccc4)CC3)n2)cc1 | 4.36 µM | 3.68 | 3.54 µM | 3.58 | 3.05 µM | 13 | 31.7 µM | 23.2 µM | 3.54 µM | 3.47 | 1.89 | 1.94 | 1.82 | 1.75 | 1.63 | 3.58 | 16.7 | 10.4 | 1.84 | 1.74
COc1cc(NC(=O)CCSc2nc3ccc(C)cc3c(=O)n2Cc2ccccc2)cc(OC)c1OC | > 100 µM | 52.8 | > 100 µM | > 100 | > 100 µM | > 100 | > 100 µM | 60 µM | 18.5 µM | > 100 | 5.01 | 4.2 | 15.7 | 24.4 | 6.4 | > 100 | 32.4 | 15.8 | 3.17 | 5.02
